Where a SMILES comes first, the peptide text is derived from it. [ ]: non-standard residue; d: D form.
Tested on: murine Treg (CD25+ T cells)
Assay: In vitro Treg suppression assay ([3H]-thymidine, anti-CD3)
Type: cell-based, BALB/c mice
Details: peptide 100 μM
Method: Spleen was harvested from BALB/c mice (Harlan Laboratories) and homogenized with a 1-ml syringe through a 100-μm cell strainer into a 50-ml conical tube and rinsed two times with PBS (Calcium free) to recover all cells. Cell homogenate was centrifuged at 300×g for 10 min and resuspended homogenate in 1 ml ACK Lysis buffer solution per spleen. Gently swirled for 2 min and then the reaction was quenched by adding 12 ml of PBS.
Cells were centrifuged at 300×g for 10 min and purification of CD25− and CD25+ cells was carried out using magnetic beads (Miltenyi, CD25 microbead kit MOUSE, Ref 130-091-072)), following manufacturer's instructions. After labelling the cells, they were purified using Automacs-Pro device following manufacturer's instructions. Negative fraction corresponded to CD25− cells, which was used as effector Tconv cells. Positive fraction corresponded to CD25+ T cells that was used as Treg cells. Flow cytometry using anti-CD25-APC labeled and anti-CD4-FITC labelled antibodies was used to confirm the purity of isolated cells. Foxp3 expression was analyzed using the anti-Foxp3 staining antibody labelled with APC according to manufacturer's instructions (eBioscience). Purified cells were washed, resuspended in culture medium and diluted in T-cell culture medium (RPMI 1640, supplemented with 10% Fetal bovine serum and antibiotics) at a concentration of 2×10^5/ml (for Tregs) and 2×10^6/ml (for Tconv), for the assay (See below)
The first in vitro assays to measure regulatory T-cell (Treg) function were described by two groups over a decade ago. […] With this knowledge, it was shown that CD4+CD25+ T cells could potently suppress the proliferation of activated CD4+CD25− and CD8+ T cells when the populations were cocultured in vitro. The following protocol describes a basic type of in vitro Treg suppression assay where Treg function is measured in the absence of antigen-presenting cells (APCs). In this protocol, activation is mediated by anti-CD3 antibodies and includes only two cell types, the target Tconv and Tregs. In this protocol, the experiment is setup in a 96-well round-bottom plate in a total volume of 200 μl. All reagents are prepared at four times their desired final concentration and added to assay in 50 μl such that the total volume is 200 μl, thus obtaining the desired final concentration of reactives. Purified Tregs and Tconv prepared as described above were diluted and adjusted in T-cell culture medium to 2×10^5/ml and 2×10^6/ml, respectively. In round-bottom 96-well plate, Tregs and Tconv were added in 50 μl of culture media each (RPMI 1640, supplemented with 10% Fetal bovine serum, and antibiotics). Anti-CD3 antibody was added in 50 μl (final concentration will be 2.5 μg/ml) as a stimulus to induce T cell proliferation. 50 μL of each one of the peptides to be tested were added in the corresponding wells at a concentration of 100 μM and those which provided the best results were tested again at lower concentrations to determine the IC50 value. The final volume was 200 μl in all wells. Tconv alone, Tconv plus anti-CD3, Tconv+anti-CD3+ Treg or Tconv+anti-CD3+Treg+peptides were tested by quadruplicate. Tconv plus anti-CD3 with no Treg was used to determine maximum proliferation of Tconv whereas Tconv+anti-CD3+ Treg was used to determine Treg inhibition. Plates were incubated at 37° C., 5% CO2 for 72 h and then pulsed with 0.1 μCi [^3H]-thymidine (in 25 μl of culture medium per well). After 8 h of incubation, cell cultures were harvested with a cell harvester (Perkin Elmer) and using unifilter plates. Plates were then dried at 50° C., and scintillation reagent (25 μl)(Microscint, Perkin Elmer) was added to each well. Counts per minute (cpm) were determined with a direct beta counter (TopCount, Perkin Elmer).
The results of in vitro Treg suppression assays are most commonly reported as cpm when [^3H]-thymidine is incorporated into proliferating cells. […]

Compound | Treg inhibition - % inhibition (100 μM)
H-RDFQSFRKMWPFFAM-OH [compound 1] | 115.6%

Same assay, conditions: read-out: IC50 (peptide concentration able to inhibit 50% of Treg activity)

Compound | IC50
CSCC[C@H](NC(=O)[C@H](C)NC(=O)[C@H](Cc1ccccc1)NC(=O)[C@H](Cc1ccccc1)NC(=O)[C@@H]1CCCN1C(=O)[C@H](Cc1c[nH]c2ccccc12)NC(=O)[C@H](CCSC)NC(=O)[C@H](CCCCN)NC(=O)[C@H](CCCNC(=N)N)NC(=O)[C@H](Cc1ccccc1)NC(=O)[C@H](CO)NC(=O)[C@H](CCC(N)=O)NC(=O)[C@H](Cc1ccccc1)NC(=O)[C@@H](CC(=O)O)NC(=O)[C@@H](N)CCCNC(=N)N)C(=O)O [compound 3] (H-R[dD]FQSFRKMWPFFAM-OH) | 27.2 µM
CSCC[C@H](NC(=O)[C@H](C)NC(=O)[C@H](Cc1ccccc1)NC(=O)[C@H](Cc1ccccc1)NC(=O)[C@@H]1CCCN1C(=O)[C@H](Cc1c[nH]c2ccccc12)NC(=O)[C@H](CCSC)NC(=O)[C@H](CCCCN)NC(=O)[C@H](CCCNC(=N)N)NC(=O)[C@H](Cc1ccccc1)NC(=O)[C@H](CO)NC(=O)[C@H](CCC(N)=O)NC(=O)[C@H](Cc1ccccc1)NC(=O)[C@H](C)NC(=O)[C@H](N)CCCNC(=N)N)C(=O)O [compound 46] (H-[dR]AFQSFRKMWPFFAM-OH; N-terminus and C-terminus assumed) | 12.5 µM
CSCC[C@H](NC(=O)[C@H](CCCCN)NC(=O)[C@H](CCCNC(=N)N)NC(=O)[C@H](Cc1ccccc1)NC(=O)[C@H](CO)NC(=O)[C@H](CCC(N)=O)NC(=O)[C@H](Cc1ccccc1)NC(=O)[C@H](C)NC(=O)[C@@H](N)CCCNC(=N)N)C(=O)N[C@@H](Cc1c[nH]c2ccccc12)C(=O)N1CCC[C@H]1C(=O)N[C@@H](Cc1ccccc1)C(=O)N[C@@H](Cc1ccccc1)C(=O)N[C@@H](C)C(=O)N[C@H](CCSC)C(=O)O [compound 47] (H-RAFQSFRKMWPFFA[dM]-OH; N-terminus and C-terminus assumed) | 35 µM
CSCC[C@H](NC(=O)[C@H](CCCCN)NC(=O)[C@H](CCCNC(=N)N)NC(=O)[C@H](Cc1ccccc1)NC(=O)[C@H](CO)NC(=O)[C@H](CCC(N)=O)NC(=O)[C@H](Cc1ccccc1)NC(=O)[C@H](C)NC(=O)[C@H](N)CCCNC(=N)N)C(=O)N[C@@H](Cc1c[nH]c2ccccc12)C(=O)N1CCC[C@H]1C(=O)N[C@@H](Cc1ccccc1)C(=O)N[C@@H](Cc1ccccc1)C(=O)N[C@@H](C)C(=O)N[C@H](CCSC)C(=O)O [compound 48] (H-[dR]AFQSFRKMWPFFA[dM]-OH; N-terminus and C-terminus assumed) | 20 µM
CSCC[C@@H]1NC(=O)[C@H](C)NC(=O)[C@H](Cc2ccccc2)NC(=O)[C@H](Cc2ccccc2)NC(=O)[C@@H]2CCCN2C(=O)[C@H](Cc2c[nH]c3ccccc23)NC(=O)[C@H](CCSC)NC(=O)[C@H](CCCCN)NC(=O)[C@H](CCCNC(=N)N)NC(=O)[C@H](Cc2ccccc2)NC(=O)[C@H](C)NC(=O)[C@H](CCC(N)=O)NC(=O)[C@H](Cc2ccccc2)NC(=O)[C@H](C)NC(=O)[C@H](CCCNC(=N)N)NC1=O [compound 50] (cyclo(RAFQAFRKMWPFFAM)) | 0.8 µM
H-RDFQSFRKMWPFFAM-OH [compound 1] | 38.3 µM
